Read-outs that look alike come from different tables or passages of the source.

Experimental findings from US20120040951A1, “HETEROARYL COMPOUNDS USEFUL AS RAF KINASE INHIBITORS” (priority 2008, published 2012) are described below.

The target of one experiment is V599E Raf (Homo sapiens, UniProt P15056, V600E). Kind of experiment: Biochemical FRET assay, mutant Raf (phosphorylation of MEK). Conditions: 0.125 nM V599E Raf, 100 nM biotin-MEK, 25 μM ATP, read-out: Raf (mut) inhibition. The method, boiled down:
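V599E Raf (0.125 nM) preincubated 20 min with inhibitor and 100 nM biotin-MEK in HEPES pH 7.4 with Mg2+/Mn2+, then reacted with 25 μM ATP for 60 min at room temperature. EDTA-stopped; phospho-MEK1/2 (Ser217/221) detected by Eu/APC TR-FRET after 90 min.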

Experiment [1] relates to phospho-ERK in melanoma derived WM-266-4 cells. Kind of experiment: Mechanistic cellular assay for Raf kinase activity (phospho-ERK, Bio-Plex). Type of experiment: cell-based. Conditions: treated 1-2 hr at 37° C., serum free medium, read-out: pERK EC50. The method, boiled down: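 WM-266-4 melanoma cells (wild-type/V600D BRaf) grown overnight in 10% FBS RPMI, then treated 1–2 h at 37 °C in serum-free RPMI with eight 3-fold dilutions of compound (from 5 mM DMSO stock, 1000× dilution). Lysate phospho-ERK1,2 quantified by Bio-Plex bead immunoassay.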

V599E Raf, sequence (P15056 whole entry V600E): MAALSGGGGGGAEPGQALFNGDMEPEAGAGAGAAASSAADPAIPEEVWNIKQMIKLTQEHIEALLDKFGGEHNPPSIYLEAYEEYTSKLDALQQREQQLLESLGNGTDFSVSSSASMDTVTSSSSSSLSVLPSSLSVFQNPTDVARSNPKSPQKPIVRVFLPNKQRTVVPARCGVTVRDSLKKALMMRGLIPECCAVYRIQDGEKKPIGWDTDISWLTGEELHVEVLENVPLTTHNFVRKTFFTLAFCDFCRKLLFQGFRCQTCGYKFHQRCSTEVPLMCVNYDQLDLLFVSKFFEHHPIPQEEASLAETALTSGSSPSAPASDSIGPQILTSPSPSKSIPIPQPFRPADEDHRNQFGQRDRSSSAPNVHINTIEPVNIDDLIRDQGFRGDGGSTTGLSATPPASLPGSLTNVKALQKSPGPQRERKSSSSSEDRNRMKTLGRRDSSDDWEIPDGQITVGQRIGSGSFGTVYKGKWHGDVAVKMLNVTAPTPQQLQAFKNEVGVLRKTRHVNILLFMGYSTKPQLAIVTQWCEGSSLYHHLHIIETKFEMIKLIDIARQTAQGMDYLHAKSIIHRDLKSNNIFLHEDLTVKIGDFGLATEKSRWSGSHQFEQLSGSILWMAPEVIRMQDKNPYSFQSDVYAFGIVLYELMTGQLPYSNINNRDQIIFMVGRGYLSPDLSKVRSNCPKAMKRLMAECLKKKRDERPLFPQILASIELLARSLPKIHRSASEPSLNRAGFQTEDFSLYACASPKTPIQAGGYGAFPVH

Broadly, the EC50 is the concentration that produces a half-maximal response. As for `CC(NC(=O)c1cc2c(cn1)ncn2C)c1cnc(Nc2ccc(C(F)(F)F)cc2Cl)cn1` (stereo not drawn) [Example 265a], the IC50 on V599E Raf was not above 100 nM. Also, the EC50 in experiment [1] (Homo sapiens) lay in the range of 100 to 1000 nM.
Regarding `CC(NC(=O)c1cc2c(cn1)ncn2CC(=O)O)c1cnc(Nc2ccc(C(F)(F)F)cc2)s1` (stereo not drawn) [Example 354], the IC50 at V599E Raf is not above 100 nM. Besides, the EC50 in experiment [1] (Homo sapiens) is 1000 to 10000 nM.
In the case of `Cc1nc2cc(C(=O)N[C@H](C)c3ncc(C(=O)Nc4cc(C(F)(F)F)c(Cl)cn4)s3)ccc2[nH]1` [Example 49], the IC50 at V599E Raf is not above 100 nM. The EC50 in experiment [1] (Homo sapiens) lay in the range of 100 to 1000 nM.
As to `Cc1ncoc1C(=O)N[C@H](C)c1ncc(C(=O)Nc2cc(C(F)(F)F)c(Cl)cn2)s1` [Example 103], at V599E Raf, the IC50 was not above 100 nM. The EC50 in experiment [1] (Homo sapiens) lay within 1000 to 10000 nM.
On to `CC(NC(=O)c1cn2c(C(F)(F)F)cnc2cn1)c1cnc(Nc2ccc(C(F)(F)F)cc2)s1` (stereo not drawn) [Example 300], for which the IC50 at V599E Raf is not above 100 nM. Also, in experiment [1] (Homo sapiens), the EC50 was 1000 to 10000 nM.
On to `CC(NC(=O)c1ccc2ncccc2c1)c1cnc(Nc2ccc(C(F)(F)F)cc2)s1` (stereo not drawn) [Example 72], for which the IC50 on V599E Raf is not above 100 nM. The EC50 in experiment [1] (Homo sapiens) is 1000 to 10000 nM.
For `CC(NC(=O)c1cc2c(cn1)ncn2C)c1cnc(Nc2cccc(C(C)(C)C(F)(F)F)c2)cn1` (stereo not drawn) [Example 273], in that order: not above 100 nM and not above 100 nM.
In the case of `CC(=O)Nc1cccc(C(=O)N[C@H](C)c2ncc(C(=O)Nc3cc(C(F)(F)F)c(Cl)cn3)s2)n1` [Example 93], the IC50 at V599E Raf was in the range of 100 to 1000 nM. The EC50 in experiment [1] (Homo sapiens) was 1000 to 10000 nM.
As to `CC(NC(=O)c1cc2c(cn1)ncn2C)c1cnc(Nc2ccc(C(F)(F)F)cn2)cn1` (stereo not drawn) [Example 264], on V599E Raf, the IC50 is not above 100 nM. Further, the EC50 in experiment [1] lay within 100 to 1000 nM.
`C[C@H](NC(=O)c1cc2c(cn1)ncn2C)c1cnc(Nc2ccc(C(F)(F)F)cc2)s1` [Example 3]: the IC50 at V599E Raf is not above 100 nM. The EC50 in experiment [1] (Homo sapiens) lay within 1000 to 10000 nM.
For `CC(C)n1cc(C(=O)N[C@H](C)c2ncc(C(=O)Nc3cc(C(F)(F)F)c(Cl)cn3)s2)cn1` [Example 134], in that order: 100 to 1000 nM and 100 to 1000 nM.
Consider `C[C@@H](NC(=O)c1cnn2ccccc12)c1cc(C(=O)Nc2nc3ccccc3[nH]2)on1` [Example 211], for which the IC50 on V599E Raf is not above 100 nM. The EC50 in experiment [1] (Homo sapiens) lay within 1000 to 10000 nM.
For `CC(NC(=O)c1cc2cn(C)nc2cn1)c1cnc(Nc2ccc(C(F)(F)F)cc2)s1` (stereo not drawn) [Example 203], in that order: not above 100 nM and not above 100 nM.
For `C[C@@H](NC(=O)c1cnc2n1CCN(C)C2)c1ncc(C(=O)Nc2cc(C(F)(F)F)c(Cl)cn2)s1` [Example 317], in that order: 100 to 1000 nM and 1000 to 10000 nM.
For `C[C@@H](NC(=O)c1cnn2cc(-c3cccnc3)ccc12)c1cc(C(=O)Nc2cccc(OC(F)(F)F)c2)on1` [Example 332], the IC50 on V599E Raf lay in the range of 100 to 1000 nM. The EC50 in experiment [1] (Homo sapiens) is not above 100 nM.
For `C[C@@H](NC(=O)c1cn(-c2ccncc2)cn1)c1ncc(C(=O)Nc2cc(C(F)(F)F)c(Cl)cn2)s1` [Example 148], in that order: not above 100 nM and 1000 to 10000 nM.
Consider `COc1nc(C(C)(C)C)ncc1Nc1ncc(C(C)NC(=O)c2cc3c(cn2)ncn3C)s1` (stereo not drawn) [Example 270], for which the IC50 at V599E Raf is not above 100 nM. Also, the EC50 in experiment [1] (Homo sapiens) is not above 100 nM.
Turning to `C[C@@H](NC(=O)c1ccc2[nH]c(C(F)(F)F)nc2c1)c1ncc(C(=O)Nc2cc(C(F)(F)F)c(Cl)cn2)s1` [Example 62], the IC50 on V599E Raf lay within 100 to 1000 nM. In experiment [1] (Homo sapiens), the EC50 is 1000 to 10000 nM.
For `C[C@@H](NC(=O)c1cnn2ccccc12)c1ncc(C(=O)Nc2cc(C(F)(F)F)c(Cl)cn2)s1` [Example 86], in that order: not above 100 nM and 100 to 1000 nM.
For `CC(NC(=O)c1cnn2ccccc12)c1cnc(Nc2ccc(C(F)(F)F)cc2)s1` (stereo not drawn) [Example 224], in that order: not above 100 nM and 100 to 1000 nM.
For `CC(NC(=O)c1cc2c(cn1)ncn2C)c1cnc(Nc2ccc(C(F)(F)F)cc2Cl)s1` (stereo not drawn) [Example 245], in that order: not above 100 nM and not above 100 nM.
`C[C@@H](NC(=O)c1cccc(N2CCOCC2)n1)c1ncc(C(=O)Nc2cc(C(F)(F)F)c(Cl)cn2)s1` [Example 90]: the IC50 at V599E Raf is not above 100 nM. The EC50 in experiment [1] (Homo sapiens) was 100 to 1000 nM.
For `Cc1cc2nc(NC(=O)c3cc([C@@H](C)NC(=O)c4cnn5ccccc45)no3)[nH]c2cc1C` [Example 219], in that order: 100 to 1000 nM and 100 to 1000 nM.
For `CC(C)Oc1cc(C(F)(F)F)ccc1Nc1ncc(C(C)NC(=O)c2cc3c(cn2)ncn3C)s1` (stereo not drawn) [Example 289], in that order: not above 100 nM and 100 to 1000 nM.
Regarding `C[C@@H](NC(=O)c1cnn2ccccc12)c1cc(C(=O)Nc2cccc(OC(F)(F)F)c2)on1` [Example 217], the IC50 at V599E Raf was not above 100 nM. The concentration for a half-maximal effect (EC50) in experiment [1] (Homo sapiens) is 100 to 1000 nM.
Regarding `C[C@@H](NC(=O)c1cc2c(cn1)ncn2C)c1cnc(Nc2ccc(C(F)(F)F)cc2)cn1` (single isomer, unassigned) [Example 37], at V599E Raf, the IC50 is not above 100 nM. The EC50 in experiment [1] (Homo sapiens) was not above 100 nM.
As for `Cc1nc2cc(C(=O)N[C@H](C)c3ncc(C(=O)Nc4cc(C(F)(F)F)c(Cl)cn4)s3)ccc2n1CCO` [Example 52], the IC50 at V599E Raf is not above 100 nM. The EC50 in experiment [1] (Homo sapiens) was in the range of 1000 to 10000 nM.
